We go through five compounds from article PMC9661476 (Journal of Medicinal Chemistry, 2022).

Molecules are shown by their SMILES. ≈ marks a conversion by molar mass, not a printed value. Read-outs that look alike come from different tables or passages of the source.

By melting point is commonly meant the temperature of the solid-liquid transition. Broadly, the solubility is the concentration that dissolves in the medium under given conditions.

Data set [1] is described as follows: Aqueous solubility measurement. The class given is physicochemical. The conditions noted are these: for solubility: distilled or deionized water; for solubility, single assay: water. As for the experimental part: Then, distilled or deionized water was added under gentle agitation until total dissolution. All the experiments were performed in triplicate.
Another data set concerns plasmatic TTR. The conditions noted are these: Phase IIa, FAP patients; cited from earlier work.
The mark [2] stands for this setting: assays 1-3 of triplicate, read-out: solubility, single assay.
Where [3] appears, read: average of triplicate, read-out: solubility, average.

Turning to `O=C(c1ccc(C(F)(F)F)cc1)c1cc(O)c(O)c([N+](=O)[O-])c1` [Compound M-14, (3,4-Dihydroxy-5-nitrophenyl)-[4-(trifluoromethyl)phenyl]methanone], the melting point was 68 to 71 °C.

In turn, `O=C(c1cc(Cl)cc(Cl)c1)c1cc(O)c(O)c([N+](=O)[O-])c1` [Compound M-20, (3,5-Dichlorophenyl)-(3,4-dihydroxy-5-nitrophenyl)methanone] yielded a melting point of 182 to 184 °C.

`O=C(c1cc(F)cc(F)c1)c1cc(O)c(O)c([N+](=O)[O-])c1` [Compound M-21, (3,5-Difluorophenyl)-(3,4-dihydroxy-5-nitrophenyl)methanone] had a melting point of 135 to 137 °C.

For the compound `O=C(c1cc(O)cc(F)c1)c1cc(O)c(O)c([N+](=O)[O-])c1` [Compound M-23, (3,4-Dihydroxy-5-nitrophenyl)-(3-fluoro-5-hydroxyphenyl)methanone], the solubility in data set [1] (setting [2]) amounted to 44 µg/mL (≈ 150 µM); in data set [1] (setting [3]) it was 45 µg/mL (≈ 153 µM). For the same compound, the “solubility, single assay” value in data set [1] (assays 1-3 of triplicate) is reported as 0.045 mg/mL (≈ 153 µM).

For the compound `Cc1ccc(C(=O)c2cc(O)c(O)c([N+](=O)[O-])c2)cc1` [tolcapone, 3,4-dihydroxy-4′-methyl-5-nitrobenzophenone, reference compound], in the data set with plasmatic TTR, the Adverse events result is recorded as “no adverse events were registered”. Besides, the solubility in data set [1] (setting [2]) and in data set [1] (setting [3]) was 56 µg/mL (≈ 205 µM) each time. For the same compound, in data set [1] (assays 1-3 of triplicate), the “solubility, single assay” value is 0.055 mg/mL (≈ 201 µM).
